{
  "source": "paper PMC10778980",
  "about": "“Profiling Novel Quinuclidine-Based Derivatives as Potential Anticholinesterase Drugs: Enzyme Inhibition and Effects on Cell Viability” (International Journal of Molecular Sciences, 2023)",
  "key": {"human BChE": {"biological_target": "T1, human BChE (Homo sapiens, UniProt P06276)", "T1 construct": "Plasma was removed and used as a source of BChE; from tissue; host or cells: human blood plasma from a healthy volunteer", "T1 sequence (P06276 29-602)": "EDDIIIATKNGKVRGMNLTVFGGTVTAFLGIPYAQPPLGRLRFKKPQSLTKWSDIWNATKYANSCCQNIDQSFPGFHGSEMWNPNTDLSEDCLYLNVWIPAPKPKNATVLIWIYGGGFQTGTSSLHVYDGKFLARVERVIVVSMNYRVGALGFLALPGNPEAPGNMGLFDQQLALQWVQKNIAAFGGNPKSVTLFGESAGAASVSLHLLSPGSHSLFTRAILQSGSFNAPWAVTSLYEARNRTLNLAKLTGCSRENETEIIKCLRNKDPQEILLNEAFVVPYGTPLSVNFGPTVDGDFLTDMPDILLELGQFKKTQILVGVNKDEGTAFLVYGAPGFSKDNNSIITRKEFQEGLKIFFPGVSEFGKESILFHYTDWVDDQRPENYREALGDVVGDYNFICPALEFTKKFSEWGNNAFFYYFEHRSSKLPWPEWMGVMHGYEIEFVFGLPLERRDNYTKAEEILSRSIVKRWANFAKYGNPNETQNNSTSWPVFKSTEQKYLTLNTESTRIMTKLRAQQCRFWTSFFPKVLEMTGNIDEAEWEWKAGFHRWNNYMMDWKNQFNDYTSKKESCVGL", "assay": "biochemical", "source_text": "(§1) Cholinesterase substrate acetylthiocholine (ATCh) and the thiol reagent 5,5′-dithiobis(2-nitrobenzoic acid) (DTNB) for the enzyme activity measurement were purchased from Sigma-Aldrich (St. Louis, MO, USA). The sources of human AChE and BChE were native erythrocytes and plasma, respectively, obtained from the blood of a healthy volunteer and in accordance with the approval of the Ethics Committee of the Institute for Medical Research and Occupational Health (approval number: 100-21/23-6). Erythrocytes and plasma were isolated from the whole blood and prepared according to a previously published procedure. Namely, venous blood was collected into a heparinized tube and centrifuged (at 4 °C, 20 min on 2500 rpm, Eppendorf centrifuge 5702R) to separate plasma from the erythrocytes. Plasma was removed and used as a source of BChE, while erythrocytes were washed twice with the 0.1 M sodium phosphate buffer, pH 7.4, in a volume corresponding to the initial volume of the whole blood. Both plasma and erythrocytes were frozen at −20 °C until use. Quinuclidine compounds were dissolved in dH2O as 10 or 100 mM; exceptionally, 3-hydroxyimino compounds with longer chains (C12−C16) were dissolved in DMSO as 100 mM solutions. Stock solutions were kept at 4 °C until use. Further dilutions were made in distilled water.\n(§2) The reversible inhibition experiments followed a previously published procedure. Namely, the enzyme activity was measured in the presence of a wide range of quinuclidine compound concentrations and in the substrate range from 0.1 to 0.5 mM to confirm the type of compound binding. The activity was assayed following the Ellman’s procedure, with the modification in the wavelength used for detection of the TNB anion in the case of AChE activity measurement due to the interference of the hemoglobin, and according to Worek et al.. The assay was performed in 96-well plates on an Infinite M200PRO plate reader (Tecan Austria GmbH, Salzburg, Austria) at 25 °C. Each concentration was tested in triplicate or quadruplicate on each plate. The inhibition mixture contained 0.1 M sodium phosphate buffer, pH 7.4, enzyme (AChE or BChE), quinuclidine compound (0.2–400 μM final), DTNB (0.3 mM final), and ATCh (from 0.1 to 0.5 mM final) to start the reaction. The increase in absorbance was read at 436 nm for AChE and at 412 nm for BChE. The measured activity in the presence of compounds was corrected for the non-enzymatic hydrolysis of substrate ATCh, if detected. The reversible enzyme–quinuclidine complex dissociation constants (the inhibition constants) Ki were evaluated from the effect of the substrate concentration on the degree of inhibition according to the Hunter–Downs equation as described previously, taking into account only quinuclidine concentrations where 20–80% inhibition of the activity was observed."}, "HepG2 cells": {"tested_on": "HepG2 cells", "assay": "Cytotoxicity assay (MTS) on HepG2", "format": "cell-based", "conditions": "Homo sapiens", "method": "(§3) SH-SY5Y cells were grown in DMEM F12 (Sigma-Aldrich, St. Louis, MO, USA) supplemented with 15% (v/v) fetal bovine serum (FBS), 2 mM glutamine, and 1% (v/v) non-essential amino acids (NEAA). HepG2 cells were grown in EMEM supplemented with 10% (v/v) FBS, 2 mM glutamine, and 1% (v/v) non-essential amino acids NEAA. All media and supplements were purchased from Sigma-Aldrich, Steinheim, Germany.\n(§4) The procedure followed a previously described protocol."}, "human AChE": {"biological_target": "T2, human AChE (Homo sapiens, UniProt P22303)", "T2 construct": "The sources of human AChE and BChE were native erythrocytes and plasma, respectively; from tissue; host or cells: human erythrocytes from venous blood of a healthy volunteer", "T2 sequence (P22303 32-617 isoform P22303-2 limits assumed)": "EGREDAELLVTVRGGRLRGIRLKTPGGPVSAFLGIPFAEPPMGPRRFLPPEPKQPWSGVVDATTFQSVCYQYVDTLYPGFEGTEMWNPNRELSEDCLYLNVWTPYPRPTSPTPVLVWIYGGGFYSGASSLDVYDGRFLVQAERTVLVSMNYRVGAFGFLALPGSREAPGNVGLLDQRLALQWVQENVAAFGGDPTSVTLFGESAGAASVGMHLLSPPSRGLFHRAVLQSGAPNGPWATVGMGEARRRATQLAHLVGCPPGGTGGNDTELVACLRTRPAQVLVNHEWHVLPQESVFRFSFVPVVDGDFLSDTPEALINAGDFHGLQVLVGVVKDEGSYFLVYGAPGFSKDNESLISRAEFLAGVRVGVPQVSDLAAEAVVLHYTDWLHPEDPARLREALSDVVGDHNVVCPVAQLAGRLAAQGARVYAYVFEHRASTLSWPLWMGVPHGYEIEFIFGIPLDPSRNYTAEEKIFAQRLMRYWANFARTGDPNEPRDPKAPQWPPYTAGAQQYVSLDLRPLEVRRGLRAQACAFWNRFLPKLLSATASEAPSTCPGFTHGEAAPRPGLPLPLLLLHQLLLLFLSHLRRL", "assay": "Reversible inhibition of AChE (Ellman's procedure, Hunter–Downs evaluation)", "format": "biochemical", "conditions": "for Ki: Ki ± standard error, 0.1, 0.2, 0.35 and 0.5 mM substrate ATCh, 25 °C, pH 7.4; for Ki (AChE)/Ki (BChE): selectivity ratio", "source_text": "as §1, §2"}, "SH-SY5Y cells": {"tested_on": "SH-SY5Y cells", "assay": "Cytotoxicity assay (MTS) on SH-SY5Y", "format": "cell-based", "conditions": "Homo sapiens", "method": "as §3, §4"}, "[1]": {"conditions": "Ki ± standard error, 0.1, 0.2, 0.35 and 0.5 mM substrate ATCh, 25 °C, pH 7.4, read-out: Ki BChE"}, "[2]": {"conditions": "HepG2, read-out: IC50 ± SE HepG2 1 h, 1 h exposure"}, "[3]": {"conditions": "HepG2, 4 h exposure, read-out: IC50 ± SE HepG2 4 h"}, "[4]": {"conditions": "HepG2, 24 h exposure, read-out: IC50 ± SE HepG2 24 h"}, "[5]": {"conditions": "4 h exposure, read-out: IC50 ± SE SH-SY5Y 4 h"}, "[6]": {"conditions": "24 h exposure, read-out: IC50 ± SE SH-SY5Y 24 h"}, "[7]": {"conditions": "read-out: IC50 ± SE SH-SY5Y 1 h, 1 h exposure"}},
  "note": "Like-named read-outs stand apart in the source and are kept apart here.",
  "data": [
    {"smiles": "OC1C[N+]2(CCCCCCCC[N+]34CCC(CC3)C(O)C4)CCC1CC2", "note": "(stereo not shown) [Compound 6, 1,1′-(octano)bis(3-hydroxyquinuclidinium bromide)]", "values": [
      {"measurement": "Ki", "setting": "human BChE; [1]", "value": "12.9 ± 1", "unit": "µM"},
      {"measurement": "IC50", "setting": "HepG2 cells; [2]", "value": "≥ 800", "unit": "µM"},
      {"measurement": "IC50", "setting": "HepG2 cells; [3]", "value": "≥ 800", "unit": "µM"},
      {"measurement": "IC50", "setting": "HepG2 cells; [4]", "value": "≥ 800", "unit": "µM"},
      {"measurement": "Ki", "setting": "human AChE", "value": "24 ± 1.1", "unit": "µM"},
      {"measurement": "Ki (AChE)/Ki (BChE)", "setting": "human AChE", "value": 1.9},
      {"measurement": "IC50", "setting": "SH-SY5Y cells; [5]", "value": "≥ 800", "unit": "µM"},
      {"measurement": "IC50", "setting": "SH-SY5Y cells; [6]", "value": "≥ 800", "unit": "µM"},
      {"measurement": "IC50", "setting": "SH-SY5Y cells; [7]", "value": "≥ 800", "unit": "µM"}
    ]},
    {"smiles": "OC1C[N+]2(CCCCCCCCCC[N+]34CCC(CC3)C(O)C4)CCC1CC2", "note": "(stereo not shown) [Compound 7, 1,1’-(decano)bis(3-hydroxyquinuclidinium bromide)]", "values": [
      {"measurement": "Ki", "setting": "human BChE; [1]", "value": "1.6 ± 0.2", "unit": "µM"},
      {"measurement": "IC50", "setting": "HepG2 cells; [2]", "value": "≥ 800", "unit": "µM"},
      {"measurement": "IC50", "setting": "HepG2 cells; [3]", "value": "≥ 800", "unit": "µM"},
      {"measurement": "IC50", "setting": "HepG2 cells; [4]", "value": "≥ 800", "unit": "µM"},
      {"measurement": "Ki", "setting": "human AChE", "value": "0.52 ± 0.05", "unit": "µM"},
      {"measurement": "Ki (AChE)/Ki (BChE)", "setting": "human AChE", "value": 0.3},
      {"measurement": "IC50", "setting": "SH-SY5Y cells; [5]", "value": "≥ 800", "unit": "µM"},
      {"measurement": "IC50", "setting": "SH-SY5Y cells; [6]", "value": "≥ 800", "unit": "µM"},
      {"measurement": "IC50", "setting": "SH-SY5Y cells; [7]", "value": "≥ 800", "unit": "µM"}
    ]},
    {"smiles": "CCCCCCCC[N+]12CCC(CC1)C(=NO)C2.[Br-]", "note": "[Compound 8, 1-octyl-3-hydroxyiminoquinuclidinium bromide]", "values": [
      {"measurement": "Ki", "setting": "human BChE", "value": "37.9 ± 10.4", "unit": "µM"},
      {"measurement": "IC50", "setting": "HepG2 cells; [2]", "value": "≥ 800", "unit": "µM"},
      {"measurement": "IC50", "setting": "HepG2 cells; [3]", "value": "≥ 800", "unit": "µM"},
      {"measurement": "IC50", "setting": "HepG2 cells; [4]", "value": "≥ 800", "unit": "µM"},
      {"measurement": "Ki", "setting": "human AChE", "value": "82.7 ± 3.5", "unit": "µM"},
      {"measurement": "Ki (AChE)/Ki (BChE)", "setting": "human AChE", "value": 2.2},
      {"measurement": "IC50", "setting": "SH-SY5Y cells; [5]", "value": "≥ 800", "unit": "µM"},
      {"measurement": "IC50", "setting": "SH-SY5Y cells; [6]", "value": "≥ 800", "unit": "µM"},
      {"measurement": "IC50", "setting": "SH-SY5Y cells; [7]", "value": "≥ 800", "unit": "µM"}
    ]},
    {"smiles": "CCCCCCCCCC[N+]12CCC(CC1)C(=NO)C2.[Br-]", "note": "[Compound 9, 1-decyl-3-hydroxyiminoquinuclidinium bromide]", "values": [
      {"measurement": "Ki", "setting": "human BChE", "value": "5.2 ± 1.1", "unit": "µM"},
      {"measurement": "IC50", "setting": "HepG2 cells; [2]", "value": "≥ 800", "unit": "µM"},
      {"measurement": "IC50", "setting": "HepG2 cells; [3]", "value": "≥ 800", "unit": "µM"},
      {"measurement": "IC50", "setting": "HepG2 cells; [4]", "value": "≥ 800", "unit": "µM"},
      {"measurement": "Ki", "setting": "human AChE", "value": "23.8 ± 0.8", "unit": "µM"},
      {"measurement": "Ki (AChE)/Ki (BChE)", "setting": "human AChE", "value": 4.6},
      {"measurement": "IC50", "setting": "SH-SY5Y cells; [5]", "value": "≥ 800", "unit": "µM"},
      {"measurement": "IC50", "setting": "SH-SY5Y cells; [6]", "value": "≥ 800", "unit": "µM"},
      {"measurement": "IC50", "setting": "SH-SY5Y cells; [7]", "value": "≥ 800", "unit": "µM"}
    ]},
    {"smiles": "ON=C1C[N+]2(CCCCCCCC[N+]34CCC(CC3)C(=NO)C4)CCC1CC2", "note": "[Compound 13, 1,1’-(octano)bis(3-hydroxyiminoquinuclidinium bromide)]", "values": [
      {"measurement": "Ki", "setting": "human BChE; [1]", "value": "3.4 ± 0.2", "unit": "µM"},
      {"measurement": "IC50", "setting": "HepG2 cells; [2]", "value": "≥ 800", "unit": "µM"},
      {"measurement": "IC50", "setting": "HepG2 cells; [3]", "value": "≥ 800", "unit": "µM"},
      {"measurement": "IC50", "setting": "HepG2 cells; [4]", "value": "≥ 800", "unit": "µM"},
      {"measurement": "Ki", "setting": "human AChE", "value": "1.8 ± 0.07", "unit": "µM"},
      {"measurement": "Ki (AChE)/Ki (BChE)", "setting": "human AChE", "value": 0.5},
      {"measurement": "IC50", "setting": "SH-SY5Y cells; [5]", "value": "≥ 800", "unit": "µM"},
      {"measurement": "IC50", "setting": "SH-SY5Y cells; [6]", "value": "≥ 800", "unit": "µM"},
      {"measurement": "IC50", "setting": "SH-SY5Y cells; [7]", "value": "≥ 800", "unit": "µM"}
    ]},
    {"smiles": "ON=C1C[N+]2(CCCCCCCCCC[N+]34CCC(CC3)C(=NO)C4)CCC1CC2", "note": "[Compound 14, 1,1’-(decano)bis(3-hydroxyiminoquinuclidinium bromide)]", "values": [
      {"measurement": "Ki", "setting": "human BChE; [1]", "value": "1.2 ± 0.06", "unit": "µM"},
      {"measurement": "IC50", "setting": "HepG2 cells; [2]", "value": "≥ 800", "unit": "µM"},
      {"measurement": "IC50", "setting": "HepG2 cells; [3]", "value": "≥ 800", "unit": "µM"},
      {"measurement": "IC50", "setting": "HepG2 cells; [4]", "value": "≥ 800", "unit": "µM"},
      {"measurement": "times less efficient than donepezil", "setting": "human AChE; AChE Ki compared to donepezil", "value": "around 60"},
      {"measurement": "Ki", "setting": "human AChE", "value": "0.26 ± 0.02", "unit": "µM"},
      {"measurement": "Ki (AChE)/Ki (BChE)", "setting": "human AChE", "value": 0.2},
      {"measurement": "IC50", "setting": "SH-SY5Y cells; [5]", "value": "≥ 800", "unit": "µM"},
      {"measurement": "IC50", "setting": "SH-SY5Y cells; [6]", "value": "≥ 800", "unit": "µM"},
      {"measurement": "IC50", "setting": "SH-SY5Y cells; [7]", "value": "≥ 800", "unit": "µM"}
    ]}
  ]
}
